# Measured values: PubChem BioAssay AID624367 (Broad Institute, 2012)
# The source made the active and inactive calls. How the calls were made is not given here.
# Assay: viability loss in LCL cells – cell-based, plate reader, dry powder, set 2, cytotoxicity control, dose response (AID 624367)
# Conditions: Lymphoblastoid cell line (LCL) cytotoxicity, plate reader
SMILES,"activity change, negative = cytotoxicity (at 35 µM (top of the series))","activity change, negative = cytotoxicity (at 30 µM (top of the series))"
O=C(C[C@H]1CC[C@@H]2[C@H](COC[C@H](O)CN2Cc2ccc(Oc3ccccc3)cc2)O1)N1CCc2ccccc2C1,-13.9% (inactive),
Cc1noc(C)c1S(=O)(=O)Nc1ccc2c(c1)C(=O)N([C@@H](C)CO)C[C@@H](C)[C@H](CN(C)Cc1ccc(C(F)(F)F)cc1)OCCCC[C@@H](C)O2,-6.19% (inactive),
O=C(C[C@@H]1C[C@@H]2c3cc(NS(=O)(=O)c4ccc(F)cc4)ccc3O[C@@H]2[C@H](CO)O1)NC1CCCCC1,0.429% (inactive),
Cc1noc(C)c1S(=O)(=O)Nc1ccc2c(c1)C(=O)N([C@@H](C)CO)C[C@H](C)[C@H](CN(C)Cc1ccc(C(F)(F)F)cc1)OCCCC[C@@H](C)O2,,-7.54% (inactive)
Cc1noc(C)c1S(=O)(=O)Nc1ccc2c(c1)C(=O)N([C@H](C)CO)C[C@H](C)[C@H](CN(C)Cc1ccc(C(F)(F)F)cc1)OCCCC[C@H](C)O2,-5.76% (inactive),
C[C@@H]1CN([C@@H](C)CO)C(=O)Cc2cc(NC(=O)Cc3ccccc3)ccc2O[C@H]1CN(C)Cc1ccc(C(F)(F)F)cc1,-7.42% (inactive),
COc1ccccc1CNC(=O)C[C@H]1C[C@@H]2c3cc(NC(=O)CN(C)C)ccc3O[C@@H]2[C@@H](CO)O1,2.15% (inactive),
O=C(C[C@@H]1CC[C@@H]2[C@H](COC[C@@H](O)CN2Cc2ccc3c(c2)OCO3)O1)Nc1ccc(-c2ccccc2)cc1,-8.48% (inactive),
CC(C)NC(=O)N1Cc2cc(C(=O)NC3Cc4ccccc4C3)nc(-c3cccc(-c4cccnc4)c3)c2[C@@H]1CCO,0.066% (inactive),
C[C@@H]1CN([C@H](C)CO)C(=O)c2c(c3ccccc3n2C)-c2ccccc2CO[C@H]1CN(C)C(=O)Nc1ccc(F)cc1,1.26% (inactive),
CN1C(=O)c2cc(NC(=O)Cc3cccs3)ccc2OC[C@@H]2O[C@H](CC(=O)NCc3ccc(-c4ccccc4)cc3)CC[C@H]21,-7.27% (inactive),
Cc1noc(C)c1S(=O)(=O)Nc1ccc2c(c1)C(=O)N([C@H](C)CO)C[C@@H](C)[C@@H](CN(C)Cc1ccc(C(F)(F)F)cc1)OCCCC[C@@H](C)O2,1.01% (inactive),
CN(C)c1ccc2c(c1)[C@@H]1C[C@@H](CC(=O)NCc3ccc(Oc4ccccc4)cc3)O[C@@H](CO)[C@@H]1O2,8.56% (inactive),
COC(=O)C[C@@H]1C[C@@H]2c3cc(NC(=O)CN(C)C)ccc3O[C@@H]2[C@@H](CO)O1,-2.96% (inactive),
O=C(C[C@H]1C[C@@H]2c3cc(NS(=O)(=O)c4ccc(F)cc4)ccc3O[C@@H]2[C@H](CO)O1)NC1CCCCC1,0.09% (inactive),
Cc1noc(C)c1S(=O)(=O)Nc1ccc2c(c1)C(=O)N([C@H](C)CO)C[C@@H](C)[C@H](CN(C)Cc1ccc(C(F)(F)F)cc1)OCCCC[C@H](C)O2,-6.93% (inactive),
C[C@@H](NC(=O)C[C@H]1C[C@@H]2c3cc(NC(=O)c4cccnc4)ccc3O[C@@H]2[C@@H](CO)O1)c1ccccc1,-0.579% (inactive),
COc1cccc(C(=O)Nc2ccc3c(c2)C(=O)N(C)C[C@H](OC)[C@@H](C)CN(CCc2ccccc2)[C@@H](C)CO3)c1,-13% (inactive),
COc1ccccc1C#Cc1ccc2c(c1)O[C@H](CN(C)Cc1cccnc1)[C@H](C)CN([C@@H](C)CO)S2(=O)=O,-1.62% (inactive),
C[C@H](CO)N1C[C@H](C)[C@H](CN(C)Cc2ccc(C(F)(F)F)cc2)Oc2ccc(NC(=O)Cc3ccccc3)cc2CC1=O,3.51% (inactive),
Cc1noc(C)c1S(=O)(=O)Nc1ccc2c(c1)C(=O)N([C@H](C)CO)C[C@@H](C)[C@H](CN(C)Cc1ccc(C(F)(F)F)cc1)OCCCC[C@@H](C)O2,-9.24% (inactive),
CC(=O)N(C)C[C@@H]1Oc2cc(C#Cc3ccc(F)cc3)ccc2S(=O)(=O)N([C@H](C)CO)C[C@H]1C,1.69% (inactive),
COc1ccc(S(=O)(=O)N(C)C[C@@H]2Oc3ncc(/C=C/c4ccccc4)cc3C(=O)N([C@@H](C)CO)C[C@H]2C)cc1,-4% (inactive),
Cc1noc(C)c1S(=O)(=O)Nc1ccc2c(c1)C(=O)N([C@@H](C)CO)C[C@H](C)[C@@H](CN(C)Cc1ccc(C(F)(F)F)cc1)OCCCC[C@@H](C)O2,-4.06% (inactive),
C[C@@H]1CN([C@H](C)CO)S(=O)(=O)c2ccc(/C=C/c3ccccc3)cc2O[C@H]1CN(C)C(=O)NC1CCCCC1,-0.754% (inactive),
COc1cccc(S(=O)(=O)N(C)C[C@@H]2Oc3cc(C4=CCCCC4)ccc3S(=O)(=O)N([C@@H](C)CO)C[C@H]2C)c1,0.436% (inactive),
COc1ccccc1C#Cc1cnc2c(c1)C(=O)N([C@@H](C)CO)C[C@H](C)[C@@H](CN(C)C(=O)c1ccc3c(c1)OCO3)O2,16.2% (inactive),
CS(=O)(=O)Nc1ccc2c(c1)[C@H]1C[C@@H](CC(=O)NCC3CC3)O[C@@H](CO)[C@H]1O2,-1.05% (inactive),
Cc1ccc(S(=O)(=O)N(C)C[C@H]2Oc3cc(C#Cc4ccncc4)ccc3S(=O)(=O)N([C@@H](C)CO)C[C@H]2C)cc1,-6.9% (inactive),
